The source of these data is publication PMC6690489 (Bioorganic & medicinal chemistry letters, 2018).

One data set has as its system CYP450. In words: CYP450 inhibition profile. Format: in vitro ADME.
The nature of data set [1]: predicted hepatic clearance. Format: in vitro ADME. To be noted: rat.
A further data set concerns the target T1, human M4 (Homo sapiens, UniProt P08173).
T1 sequence (P08173 1-479): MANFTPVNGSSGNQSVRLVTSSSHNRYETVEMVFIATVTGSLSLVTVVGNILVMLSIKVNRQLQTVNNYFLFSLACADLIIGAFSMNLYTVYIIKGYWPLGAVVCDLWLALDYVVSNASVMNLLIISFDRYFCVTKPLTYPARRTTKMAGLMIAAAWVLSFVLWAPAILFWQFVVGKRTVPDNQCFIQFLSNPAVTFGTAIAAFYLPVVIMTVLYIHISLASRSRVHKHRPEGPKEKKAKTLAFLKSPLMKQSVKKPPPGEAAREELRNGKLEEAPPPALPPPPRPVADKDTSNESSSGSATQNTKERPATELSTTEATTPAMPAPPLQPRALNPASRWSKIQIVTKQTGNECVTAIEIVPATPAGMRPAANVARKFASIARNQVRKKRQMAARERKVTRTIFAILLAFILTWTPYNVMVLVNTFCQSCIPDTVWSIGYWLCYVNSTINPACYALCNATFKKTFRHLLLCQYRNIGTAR
In words: calcium mobilization human M4/Gqi5 assay with EC20 acetylcholine. Format: cell-based.

The term IC50 denotes the concentration needed to halve the response being measured. Broadly, the EC50 is the concentration needed to bring the measured effect to its halfway point.

SMILES strings stand for the structures.

On to `COc1ccc(CNc2n[nH]c3c2sc2nc(C)cc(C)c23)cc1` [22a], for which the IC50 in the data set on CYP450 is under 5000 nM. Also, the “predicted hepatic clearance CLhep” value in data set [1] is 66 mL/min/kg.

For `Cc1nc2sc3c(NCC4CC4)nn(C)c3c2c(C)c1Cl` [27d], the “predicted hepatic clearance CLhep” value in data set [1] was over 67 mL/min/kg.

For `Cc1nnc2sc3c(NCc4ccc(S(C)(=O)=O)c(F)c4)nn(C)c3c2c1C` [30b], the half-maximal inhibitory concentration (IC50) in the data set on CYP450 was over 30000 nM.

As to `COc1ccc(CNc2nn(C)c3c2sc2nnc(C)c(C)c23)cc1` [30a], the EC50 on human M4 was determined as 44 nM. Further, the “predicted hepatic clearance CLhep” value in data set [1] was 67.8 mL/min/kg.

Consider `COc1ccc(CNC(=O)c2cc3c(C)c(C)nnc3s2)cc1F` [18a], for which, at human M4 (des-amino analog vs NH2-bearing 4), the “loss of potency relative to parent 4” value was ~ 18 fold.

`Cc1nc2sc3c(NCc4ccco4)nn(C)c3c2c(C)c1Cl` [27e]: in data set [1], the “predicted hepatic clearance CLhep” value is given as over 67 mL/min/kg.
